The record followed here is patent publication US8344028B2, “Gamma-amino-butyric acid derivatives as GABAB receptor ligands” (XenoPort, Inc., priority 2009, dated 2013).

Experiment [1] concerns the target T1, recombinant human GABABR1a2 (Homo sapiens, UniProt Q9UBS5).
T1 construct: expressed in transfected cells; host or cells: HEK cells
Put plainly: Ca2+ assay for determining GABAB receptor agonist activity. In kind it is cell-based. The note with it: cells expressing recombinant human GABABR1a2. The protocol:
The following procedure was used to determine the GABAB receptor agonist activity of a compound as reflected by activation of Ca^2+ signaling. HEK TREx cells expressing GABABR1a2 under tetracycline induction control, and Gqi chimeric protein (expressed constitutively), allowing GABABR coupling through the Ca^2+ signaling pathway were used in the experiments.
Cells were seeded in media containing tetracycline overnight at 100,000 cells/well, in black, clear-bottom, 96-well plates. The following morning, cells were washed twice with 100 μL HBSS buffer per well. Fluorescent Ca^2+ indicator dye was prepared using the materials and procedure described in the F362056 Fluo-4 NW Calcium Assay Kit (Invitrogen, Carlsbad, Calif.). Ten (10) mL of kit buffer and 100 μl of kit Probenecid were added to individual kit dye vials, and rolled back and forth several times to dissolve the dye. Cells were then loaded into the dye solution at 50 μL per well. The cells and dye were incubated for 30 min at 37° C., and then incubated for an additional 30 min at room temperature in the dark. Test compounds are dissolved in HBSS buffer at twice final concentration. Duplicate wells were used for each unique condition. Solution containing the test compound was added to the wells using a FLEXStation II (Molecular Devices, Sunnyvale, Calif.). Using the instrument in kinetic mode in which each well was read every 2 sec over a total collection time of 50 sec fluorescence was measured using an excitation wavelength 494 nm and a detection wavelength of 516 nm. A normalized fluorescence value for each well was calculated using the following procedure. The difference in fluorescence at 35 sec (usually representing maximal response) and at 15 sec (a time point prior to addition of test compounds) was calculated, divided by the fluorescence at 15 sec, and the result multiplied by 100. The final value represented the percent increase in fluorescence relative to the fluorescence at 15 sec. Data was analyzed using standard procedures.

Experiment [2] deals with T2, GABAB receptor (Rattus norvegicus, UniProt Q9Z0U4).
T2 construct: from tissue; host or cells: rat cerebral cortex membranes
T2 sequence (Q9Z0U4 20-960): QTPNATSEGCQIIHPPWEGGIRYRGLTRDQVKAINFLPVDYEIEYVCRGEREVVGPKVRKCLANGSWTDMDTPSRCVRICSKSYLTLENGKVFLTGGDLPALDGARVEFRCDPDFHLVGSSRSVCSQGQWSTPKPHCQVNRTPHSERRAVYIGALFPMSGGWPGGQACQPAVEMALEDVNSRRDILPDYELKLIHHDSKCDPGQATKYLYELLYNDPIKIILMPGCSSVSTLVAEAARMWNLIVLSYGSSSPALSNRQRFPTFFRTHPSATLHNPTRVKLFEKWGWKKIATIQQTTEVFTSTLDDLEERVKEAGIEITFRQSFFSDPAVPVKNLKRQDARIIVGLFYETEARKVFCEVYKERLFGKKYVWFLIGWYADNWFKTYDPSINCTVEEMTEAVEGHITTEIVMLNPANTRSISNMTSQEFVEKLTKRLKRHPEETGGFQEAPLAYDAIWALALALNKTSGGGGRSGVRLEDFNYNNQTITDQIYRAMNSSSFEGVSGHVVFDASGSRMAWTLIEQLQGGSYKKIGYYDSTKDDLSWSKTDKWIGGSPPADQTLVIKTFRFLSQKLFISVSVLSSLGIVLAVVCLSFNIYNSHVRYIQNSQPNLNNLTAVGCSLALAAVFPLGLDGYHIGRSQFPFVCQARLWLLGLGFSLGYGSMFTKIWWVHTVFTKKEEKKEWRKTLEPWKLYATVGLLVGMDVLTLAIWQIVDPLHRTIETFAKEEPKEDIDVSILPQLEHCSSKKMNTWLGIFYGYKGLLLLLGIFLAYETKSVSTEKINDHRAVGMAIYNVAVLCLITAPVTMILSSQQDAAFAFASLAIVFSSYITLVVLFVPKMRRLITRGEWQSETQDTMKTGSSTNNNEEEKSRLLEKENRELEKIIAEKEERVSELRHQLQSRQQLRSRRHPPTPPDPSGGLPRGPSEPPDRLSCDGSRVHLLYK
T2 sequence (O88871 41-940 partner): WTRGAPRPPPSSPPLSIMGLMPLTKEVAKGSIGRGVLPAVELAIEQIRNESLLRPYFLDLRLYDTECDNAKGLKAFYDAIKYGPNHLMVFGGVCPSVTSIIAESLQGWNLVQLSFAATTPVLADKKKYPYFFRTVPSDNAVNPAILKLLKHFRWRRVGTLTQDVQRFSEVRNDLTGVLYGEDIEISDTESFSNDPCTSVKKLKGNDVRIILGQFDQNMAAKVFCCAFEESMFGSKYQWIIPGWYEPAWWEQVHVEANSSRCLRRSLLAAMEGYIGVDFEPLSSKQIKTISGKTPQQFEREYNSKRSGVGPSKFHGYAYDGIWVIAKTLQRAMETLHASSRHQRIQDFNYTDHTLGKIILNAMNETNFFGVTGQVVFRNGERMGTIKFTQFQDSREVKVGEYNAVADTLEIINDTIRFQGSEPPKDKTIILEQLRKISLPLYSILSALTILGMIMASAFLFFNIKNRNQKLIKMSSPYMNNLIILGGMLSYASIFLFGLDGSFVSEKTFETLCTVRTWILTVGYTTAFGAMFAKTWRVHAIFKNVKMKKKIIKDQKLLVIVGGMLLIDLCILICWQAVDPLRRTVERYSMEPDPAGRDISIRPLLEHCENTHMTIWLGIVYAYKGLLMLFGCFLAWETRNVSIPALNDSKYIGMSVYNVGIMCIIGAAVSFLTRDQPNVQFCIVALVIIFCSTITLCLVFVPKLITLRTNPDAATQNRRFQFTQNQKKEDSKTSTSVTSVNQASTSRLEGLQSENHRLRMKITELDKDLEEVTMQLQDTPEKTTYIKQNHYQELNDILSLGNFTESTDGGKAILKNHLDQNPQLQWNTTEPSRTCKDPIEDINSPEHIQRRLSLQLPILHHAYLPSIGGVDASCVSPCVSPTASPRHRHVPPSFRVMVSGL
Nature of the experiment: [3H]CGP54626 rat brain GABAB receptor binding assay. The note with it: [3H]CGP54626 rat brain binding assay. The method, then:
An assay using rat cerebral cortex membranes was used to determine the affinity of GABAB receptor ligands for the GABAB receptor.
An assay buffer of 50 mM Tris pH 7.4 was prepared with 100 μM of isoguvacine, to block GABAA interactions. The assay buffer with isoguvacine was used for dilution of membranes, compounds, and radiolabel.
Rat cerebral cortex membranes were diluted in assay buffer at 1 mg/mL and aliquoted into a 96-well plate at 900 μL/well. Buffer or test compound were added at 20-times final concentration in the buffer at 50 μL/well. Membranes and test compounds or buffer were incubated for 10 min. at room temperature. Radiolableled [S—(R*,R*)]-[3-[[1-(3,4-dichlorophenyl)ethyl]amino]-2-hydroxypropyl](cyclohexylmethyl) phosphinic acid (CGP54626) was then added at 50 μL/well in the buffer at 1-10 nM concentration in 50 μl. The mixture was incubated for 15 min. at room temperature. The assay mixture was filtered using Brandell filtration apparatus and GFB filters, washed twice with 3 mL of 4° C., 50 mM Tris pH 7.4, buffer without isoguvacine. The filters were then dried at room temperature and the dried filters punched out and placed in individual vials. Three (3) mL of scintillation fluid was added to each vial and the radiolabel counted on the scintillation counter. The inverse amount of radiolabel was indicative of binding of a test compound to the GABAB receptor.

Experiment [3] addresses T1, recombinant human GABABR1a2. Put plainly: cAMP assay for determining GABAB receptor agonist activity. In kind it is cell-based. The note with it: cells expressing recombinant human GABABR1a2; read-out: cAMP EC50. The method, then:
The following procedure was used to determine the level of intracellular cAMP. Recombinant HEK cells expressing the GABAB R1a2 receptor were used in the experiments. cAMP levels were measured using a cAMP XS^+ HitHunter™ Chemiluminescence Assay Kit (90-0075-02, GE Healthcare Biosciences Corp.). Cells were seeded overnight at 5,000 cells per well, in black, clear bottom 96-well plates. The following morning, cells were washed twice with 100 μL PBS per well. Forskolin was weighed out and dissolved in DMSO to a final concentration 100 mM. One-hundred (100) μM forskolin solutions were prepared in PBS with and without test compound at 1-times final concentration. Thirty (30) μL of the test solutions were added to the wells and incubated for 1 h at room temperature. The cAMP concentration was determined according to the protocol described in the cAMP assay kit, maintaining the plate at room temperature and in the dark. Two hours after the final kit reagent was added, the plate bottom was covered with black tape, and the plate read using a 1450 MicroBeta Trilux microplate scintillation and luminescence counter (PerkinElmer, Waltham, Mass.). Each well was read for 6 seconds. The untransformed data was then analyzed.
A general note: Cyclic AMP is a second messenger, typically raised through Gs and lowered through Gi signalling.

The target of experiment [4] is GABAB receptor (Homo sapiens, UniProt Q9UBS5). Nature of the experiment: GABAB receptor agonist or partial agonist activity by binding, electrophysiology, cAMP and/or Ca2+ assay methods (Examples 83-86). The experiment is classed as cell-based. The gist of the method:
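Binding: rat cortex membranes in 50 mM Tris pH 7.4 with 100 μM isoguvacine were preincubated 10 min at RT with compound, then radiolabeled CGP54626 (1-10 nM) was added; filtered and scintillation-counted. cAMP: GABAB R1a2 HEK cells, 1 h RT with 100 μM forskolin, chemiluminescence.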

Where a name gives a salt, the structure may show the parent alone.

T1 sequence (Q9UBS5 15-961 limits assumed): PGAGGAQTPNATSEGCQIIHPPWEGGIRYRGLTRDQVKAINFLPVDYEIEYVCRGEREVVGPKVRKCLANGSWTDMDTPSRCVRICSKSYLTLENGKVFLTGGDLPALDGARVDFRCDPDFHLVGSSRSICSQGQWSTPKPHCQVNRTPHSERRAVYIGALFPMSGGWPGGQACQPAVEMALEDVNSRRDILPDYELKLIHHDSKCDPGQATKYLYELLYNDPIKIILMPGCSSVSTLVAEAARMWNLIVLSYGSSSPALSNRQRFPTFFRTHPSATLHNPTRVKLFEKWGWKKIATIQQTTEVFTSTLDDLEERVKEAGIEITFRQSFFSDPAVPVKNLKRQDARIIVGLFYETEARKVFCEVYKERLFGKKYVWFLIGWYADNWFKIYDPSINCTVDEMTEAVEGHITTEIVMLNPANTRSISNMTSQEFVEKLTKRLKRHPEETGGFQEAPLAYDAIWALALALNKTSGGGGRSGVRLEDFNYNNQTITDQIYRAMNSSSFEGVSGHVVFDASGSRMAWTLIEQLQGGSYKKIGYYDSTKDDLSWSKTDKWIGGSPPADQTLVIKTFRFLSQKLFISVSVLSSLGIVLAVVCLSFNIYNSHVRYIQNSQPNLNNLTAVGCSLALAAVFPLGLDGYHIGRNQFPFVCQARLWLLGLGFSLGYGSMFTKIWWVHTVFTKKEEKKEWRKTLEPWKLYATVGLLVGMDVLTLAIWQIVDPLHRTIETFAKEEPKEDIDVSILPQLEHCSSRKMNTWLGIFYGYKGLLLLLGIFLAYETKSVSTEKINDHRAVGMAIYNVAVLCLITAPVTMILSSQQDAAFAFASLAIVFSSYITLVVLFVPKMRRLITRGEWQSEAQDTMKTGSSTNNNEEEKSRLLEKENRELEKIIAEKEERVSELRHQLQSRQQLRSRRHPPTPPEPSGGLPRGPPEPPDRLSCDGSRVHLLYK
T1 sequence (O75899 42-941 partner): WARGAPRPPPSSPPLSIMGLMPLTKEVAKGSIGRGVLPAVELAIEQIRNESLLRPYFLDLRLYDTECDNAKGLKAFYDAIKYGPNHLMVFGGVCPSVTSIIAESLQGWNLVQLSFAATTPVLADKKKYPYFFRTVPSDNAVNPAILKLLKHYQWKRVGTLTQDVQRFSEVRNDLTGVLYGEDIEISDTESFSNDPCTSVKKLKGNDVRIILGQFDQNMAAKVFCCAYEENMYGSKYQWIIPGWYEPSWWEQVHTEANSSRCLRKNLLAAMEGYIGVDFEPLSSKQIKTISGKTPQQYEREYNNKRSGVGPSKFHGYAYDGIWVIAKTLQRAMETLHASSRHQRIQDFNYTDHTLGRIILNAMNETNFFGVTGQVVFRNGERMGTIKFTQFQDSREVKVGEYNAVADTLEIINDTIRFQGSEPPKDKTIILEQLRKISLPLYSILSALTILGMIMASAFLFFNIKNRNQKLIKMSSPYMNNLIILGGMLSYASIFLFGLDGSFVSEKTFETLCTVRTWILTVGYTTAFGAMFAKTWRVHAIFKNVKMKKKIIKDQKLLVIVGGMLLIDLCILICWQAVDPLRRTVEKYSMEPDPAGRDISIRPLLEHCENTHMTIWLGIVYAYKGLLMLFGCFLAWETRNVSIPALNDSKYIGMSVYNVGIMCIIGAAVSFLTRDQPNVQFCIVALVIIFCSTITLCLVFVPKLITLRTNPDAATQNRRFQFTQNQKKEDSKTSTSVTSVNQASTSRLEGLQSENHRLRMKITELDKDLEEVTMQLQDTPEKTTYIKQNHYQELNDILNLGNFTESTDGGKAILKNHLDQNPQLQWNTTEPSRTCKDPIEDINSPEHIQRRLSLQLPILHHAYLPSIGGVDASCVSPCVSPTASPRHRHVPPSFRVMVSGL
Chain of GABAB receptor (Homo sapiens, UniProt Q9UBS5) (Q9UBS5 20-961): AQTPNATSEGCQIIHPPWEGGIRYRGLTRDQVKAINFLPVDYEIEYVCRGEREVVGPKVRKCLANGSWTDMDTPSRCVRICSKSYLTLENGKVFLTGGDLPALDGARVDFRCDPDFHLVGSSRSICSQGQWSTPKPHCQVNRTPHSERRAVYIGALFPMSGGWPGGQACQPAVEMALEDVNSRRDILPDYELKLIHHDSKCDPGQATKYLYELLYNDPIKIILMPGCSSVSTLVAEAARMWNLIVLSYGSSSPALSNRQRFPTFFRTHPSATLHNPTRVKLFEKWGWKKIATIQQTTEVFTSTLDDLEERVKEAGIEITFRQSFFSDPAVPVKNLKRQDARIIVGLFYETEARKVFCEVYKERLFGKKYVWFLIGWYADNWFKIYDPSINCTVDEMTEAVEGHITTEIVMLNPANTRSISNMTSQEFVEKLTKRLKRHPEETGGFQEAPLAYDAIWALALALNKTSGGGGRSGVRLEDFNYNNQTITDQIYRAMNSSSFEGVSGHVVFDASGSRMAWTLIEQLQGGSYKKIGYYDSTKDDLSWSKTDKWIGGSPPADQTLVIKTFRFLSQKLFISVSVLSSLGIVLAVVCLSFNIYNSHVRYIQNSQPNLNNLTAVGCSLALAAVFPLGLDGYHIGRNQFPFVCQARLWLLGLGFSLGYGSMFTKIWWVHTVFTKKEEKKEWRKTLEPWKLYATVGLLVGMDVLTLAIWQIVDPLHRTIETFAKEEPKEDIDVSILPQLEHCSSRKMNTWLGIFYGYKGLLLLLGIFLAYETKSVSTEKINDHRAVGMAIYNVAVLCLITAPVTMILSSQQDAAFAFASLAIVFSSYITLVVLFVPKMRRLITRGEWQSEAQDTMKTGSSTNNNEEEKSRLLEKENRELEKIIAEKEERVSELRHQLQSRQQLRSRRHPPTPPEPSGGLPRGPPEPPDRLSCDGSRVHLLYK
Chain of GABAB receptor (Homo sapiens, UniProt Q9UBS5) (O75899 42-941 partner): as the sequence (O75899 42-941 partner) above

On to `Cl.NC[C@H](CC(=O)O)c1ccc(Cl)c(-c2ccc(C(=O)O)s2)c1` [Example 67, 5-{5-[(1R)-2-Amino-1-(carboxymethyl)ethyl]-2-chlorophenyl}thiophene-2-carboxylic acid hydrochloride], for which the EC50 (as a rule, the midpoint of the concentration-response curve) in experiment [1] is less than 700 nM; in experiment [3], less than 100 nM. At GABAB receptor [2], the IC50 – broadly, the concentration at which inhibition is half-maximal – was less than 25000 nM. Moreover, the “GABAB receptor agonist or partial agonist activity” value on GABAB receptor [4] is recorded as “agonist or partial agonist activity”.
On to `Cl.NC[C@H](CC(=O)O)c1ccc(Cl)c(-c2cccc(C(=O)O)c2)c1` [Example 25, 3-{5-[(1R)-2-Amino-1-(carboxymethyl)ethyl]-2-chlorophenyl}benzoic acid hydrochloride], for which the EC50 in experiment [1] was less than 700 nM; in experiment [3], less than 100 nM. Further, the IC50 at GABAB receptor [2] is less than 25000 nM. Besides, the “GABAB receptor agonist or partial agonist activity” value at GABAB receptor [4] was “agonist or partial agonist activity”.
In the case of `Cl.N#Cc1cc(F)cc(-c2cc([C@H](CN)CC(=O)O)ccc2Cl)c1` [(3R)-4-amino-3-[4-chloro-3-(3-cyano-5-fluorophenyl)phenyl]butanoic acid hydrochloride], the EC50 in experiment [1] is less than 700 nM; in experiment [3], less than 100 nM. The IC50 on GABAB receptor [2] was less than 25000 nM. Also, on GABAB receptor [4], the “GABAB receptor agonist or partial agonist activity” value was “agonist or partial agonist activity”.
With `Cl.NC[C@H](CC(=O)O)c1ccc(Cl)c(NCc2ccncc2)c1` [Example 57, (3R)-4-Amino-3-{4-chloro-3-[(4-pyridylmethyl)amino]phenyl}butanoic acid hydrochloride], the figures for the concentration giving a half-maximal response (EC50) in experiment [1] and in experiment [3] were less than 700 nM and less than 100 nM, respectively. The IC50 at GABAB receptor [2] is less than 25000 nM. For the same compound, at GABAB receptor [4], the “GABAB receptor agonist or partial agonist activity” value is recorded as “agonist or partial agonist activity”.
With `Cl.N#Cc1ccc(Cl)c(-c2cc([C@H](CN)CC(=O)O)ccc2Cl)c1` [(3R)-4-amino-3-[4-chloro-3-(6-chloro-3-cyanophenyl)phenyl]butanoic acid hydrochloride], the EC50 is less than 700 nM in experiment [1] and less than 100 nM in experiment [3]. Further, the IC50 on GABAB receptor [2] is less than 25000 nM. The “GABAB receptor agonist or partial agonist activity” value at GABAB receptor [4] is “agonist or partial agonist activity”.
The corresponding values for `Cl.NC[C@H](CC(=O)O)c1ccc(Cl)c(OCc2cccnc2)c1` [(3R)-4-amino-3-[4-chloro-3-(3-pyridylmethoxy)phenyl]butanoic acid hydrochloride] are less than 700 nM, less than 100 nM, less than 25000 nM and “agonist or partial agonist activity”.
The like results for `Cl.N#Cc1cccc(-c2cc([C@H](CN)CC(=O)O)ccc2Cl)c1` [Example 33, (3R)-4-Amino-3-[4-chloro-3-(3-cyanophenyl)phenyl]butanoic acid hydrochloride] were, in that order, less than 700 nM, less than 100 nM, less than 25000 nM and “agonist or partial agonist activity”.
For the compound `Cl.NC[C@H](CC(=O)O)c1ccc(Cl)c(-c2ccc(F)c(C(=O)O)c2)c1` [5-{5-[(1R)-2-amino-1-(carboxymethyl)ethyl]-2-chlorophenyl}-2-fluorobenzoic acid hydrochloride], the results for the EC50 in experiment [1] and in experiment [3] were less than 700 nM and less than 100 nM, respectively. The same compound yielded an IC50 on GABAB receptor [2] of less than 25000 nM. The “GABAB receptor agonist or partial agonist activity” value on GABAB receptor [4] was “agonist or partial agonist activity”.
The corresponding values for `Cl.NC[C@H](CC(=O)O)c1ccc(Cl)c(NCc2cnc[nH]2)c1` [Example 60, (3R)-4-Amino-3-{4-chloro-3-[(imidazol-5-ylmethyl)amino]phenyl}butanoic acid hydrochloride] are less than 700 nM, less than 100 nM, less than 25000 nM and “agonist or partial agonist activity”.
Turning to `Cl.NC[C@H](CC(=O)O)c1ccc(Cl)c(-c2cccc(C(N)=O)c2)c1` [Example 52, (3R)-4-Amino-3-[3-(3-carbamoylphenyl)-4-chlorophenyl]butanoic acid hydrochloride], the EC50 in experiment [1] is less than 700 nM; in experiment [3] it was less than 100 nM. On GABAB receptor [2], the IC50 is less than 25000 nM. In addition, the “GABAB receptor agonist or partial agonist activity” value on GABAB receptor [4] is given as “agonist or partial agonist activity”.
As to `Cl.NC[C@H](CC(=O)O)c1ccc(Cl)c(-c2cccc([N+](=O)[O-])c2)c1` [Example 37, (3R)-4-Amino-3-[4-chloro-3-(3-nitrophenyl)phenyl]butanoic acid hydrochloride], the EC50 in experiment [1] is less than 700 nM; in experiment [3] it was less than 100 nM. Moreover, at GABAB receptor [2], the IC50 is less than 25000 nM. In addition, at GABAB receptor [4], the “GABAB receptor agonist or partial agonist activity” value is listed as “agonist or partial agonist activity”.
The corresponding values for `N#Cc1ccc(-c2cc([C@H](CN)CC(=O)O)ccc2Cl)s1` [Example 29, (3R)-4-Amino-3-[4-chloro-3-(5-cyano-2-thienyl))phenyl]butanoic acid hydrochloride] are less than 700 nM, less than 100 nM, less than 25000 nM and “agonist or partial agonist activity”.
On to `Cl.NC[C@H](CC(=O)O)c1ccc(Cl)c(-c2cc(F)cc(C(=O)O)c2)c1` [Example 50, 3-{5-[(1R)-2-Amino-1-(carboxymethyl)ethyl]-2-chlorophenyl}-5-fluorobenzoic acid hydrochloride], for which the EC50 in experiment [1] is less than 700 nM; in experiment [3], less than 100 nM. This compound returned an IC50 on GABAB receptor [2] of less than 25000 nM. Moreover, the “GABAB receptor agonist or partial agonist activity” value on GABAB receptor [4] was “agonist or partial agonist activity”.
